In general, IC50 refers to the concentration needed to halve the response being measured. The term solubility denotes how much of the substance goes into solution per volume. Higher therefore signals a readily soluble substance.

The target in data set [1] is T1, S-phase kinase-associated protein 2/Cyclin-dependent kinases regulatory subunit 1/S-phase kinase-associated protein 1 (Homo sapiens, UniProt Q13309). As to the kind of experiment: Inhibition of GST-tagged Skp2/Skp1 (unknown origin)/His6-tagged Cks1 (unknown origin) interaction preincubated with Skp2/Skp1 for 10 mins followed by Cks1 addition measured after 20 mins by HTRF assay. It is filed as protein assay. For orientation: TR-FRET usually uses a lanthanide donor and a delayed reading to cut background.

The test system of data set [2] is MGC-803. As to the kind of experiment: Antitumor activity against human MGC-803 cells assessed as cell growth inhibition incubated for 72 hrs by MTT assay. The class given is functional, cell-based. The conditions noted are these: MGC-803, 72 h.
For a further data set, the system named is NCI-H1299. In words: Antitumor activity against human NCI-H1299 cells assessed as cell growth inhibition incubated for 72 hrs by MTT assay. The class given is functional, cell-based. To be noted: NCI-H1299, 72 h. On the technique in general: Tetrazolium assays rely on reduction of a dye to a coloured formazan, in cell work by metabolically active cells.

A further data set has as its system MCF7. In words: Antitumor activity against human MCF7 cells assessed as cell growth inhibition incubated for 72 hrs by MTT assay. The class given is functional, cell-based. To be noted: MCF7, 72 h.
Data set [3] in a line: Antitumor activity against human EC1 cells assessed as cell growth inhibition incubated for 72 hrs by MTT assay. The class given is functional, cell-based. The conditions noted are these: EC1, 72 h.
The test system of data set [4] is PC-3. As to the kind of experiment: Antitumor activity against human PC-3 cells assessed as cell growth inhibition incubated for 72 hrs by MTT assay. It is filed as functional, cell-based. The conditions noted are these: PC-3, 72 h.
Data set [5] in a line: Solubility in cell culture medium by HPLC analysis. It is filed as physicochemical.
For data set [6], the system named is PC-3. As to the kind of experiment: Upregulation of p27 level in human PC-3 cells at 20 uM incubated for 48 hrs by Western blot analysis. It is filed as functional, cell-based.
For data set [7], the system named is PC-3. In words: Upregulation of p21 level in human PC-3 cells at 20 uM incubated for 48 hrs by Western blot analysis. It is filed as functional, cell-based. Background: A western blot detects proteins with antibodies after separation by electrophoresis.
The test system of data set [8] is PC-3. As to the kind of experiment: Downregulation of Skp2 level in human PC-3 cells at 20 uM incubated for 48 hrs by Western blot analysis. It is filed as functional, cell-based.
The subject of data set [9] is MGC-803. As to the kind of experiment: Downregulation of Skp2 level in human MGC-803 cells at 20 uM incubated for 48 hrs by Western blot analysis. The class given is functional, cell-based.
The subject of data set [10] is MGC-803. In words: Upregulation of p21 level in human MGC-803 cells at 20 uM incubated for 48 hrs by Western blot analysis. It is filed as functional, cell-based.
Data set [11] has as its system MGC-803. As to the kind of experiment: Upregulation of p27 level in human MGC-803 cells at 20 uM incubated for 48 hrs by Western blot analysis. The class given is functional, cell-based.
Data set [12] deals with PC-3. As to the kind of experiment: Induction of cell cycle arrest in human PC-3 cells assessed as accumulation of cells at G1 phase at 20 uM incubated for 48 hrs by flow cytometry (reference value: 57.39 %). The class given is functional.
Data set [13] deals with PC-3. As to the kind of experiment: Induction of cell cycle arrest in human PC-3 cells assessed as accumulation of cells at S phase at 20 uM incubated for 48 hrs by flow cytometry (reference value: 22.44 %). It is filed as functional.
The subject of data set [14] is PC-3. In words: Induction of cell cycle arrest in human PC-3 cells assessed as accumulation of cells at G2 phase at 20 uM incubated for 48 hrs by flow cytometry (reference value: 22.59 %). It is filed as functional.
The test system of data set [15] is MGC-803. As to the kind of experiment: Induction of cell cycle arrest in human MGC-803 cells assessed as accumulation of cells at G1 phase at 20 uM incubated for 48 hrs by flow cytometry (reference value: 54.46 %). It is filed as functional.
The test system of data set [16] is MGC-803. As to the kind of experiment: Induction of cell cycle arrest in human MGC-803 cells assessed as accumulation of cells at S phase at 20 uM incubated for 48 hrs by flow cytometry (reference value: 22.72 %). The class given is functional.
The subject of data set [17] is MGC-803. In words: Induction of cell cycle arrest in human MGC-803 cells assessed as accumulation of cells at G2 phase at 20 uM incubated for 48 hrs by flow cytometry (reference value: 21.35 %). The class given is functional.
Data set [18] has as its system PC-3. As to the kind of experiment: Induction of apoptosis in human PC-3 cells assessed as viable cells at 20 uM incubated for 48 hrs by annexin V-FITC/PI staining based flow cytometry (reference value: 98.6 %). It is filed as functional. The conditions noted are these: read-out: Activity.
The subject of data set [19] is PC-3. In words: Induction of apoptosis in human PC-3 cells assessed as early apoptotic cells at 20 uM incubated for 48 hrs by annexin V-FITC/PI staining based flow cytometry (reference value: 0.85 %). The class given is functional.
In data set [20] the test system is PC-3. In words: Induction of apoptosis in human PC-3 cells assessed as late apoptotic cells at 20 uM incubated for 48 hrs by annexin V-FITC/PI staining based flow cytometry (reference value: 0.45 %). It is filed as functional.
Data set [21] relates to PC-3. As to the kind of experiment: Induction of apoptosis in human PC-3 cells assessed as necrotic cells at 20 uM incubated for 48 hrs by annexin V-FITC/PI staining based flow cytometry (reference value: 0.14 %). It is filed as functional.
For data set [22], the system named is MGC-803. In words: Induction of apoptosis in human MGC-803 cells assessed as viable cells at 20 uM incubated for 48 hrs by annexin V-FITC/PI staining based flow cytometry (reference value: 98 %). The conditions noted are these: read-out: Activity. It is filed as functional.
In data set [23] the test system is MGC-803. As to the kind of experiment: Induction of apoptosis in human MGC-803 cells assessed as early apoptotic cells at 20 uM incubated for 48 hrs by annexin V-FITC/PI staining based flow cytometry (reference value: 0.21 %). It is filed as functional.
Data set [24] relates to MGC-803. In words: Induction of apoptosis in human MGC-803 cells assessed as late apoptotic cells at 20 uM incubated for 48 hrs by annexin V-FITC/PI staining based flow cytometry (reference value: 0.95 %). It is filed as functional.
Data set [25] has as its system MGC-803. As to the kind of experiment: Induction of apoptosis in human MGC-803 cells assessed as necrotic cells at 20 uM incubated for 48 hrs by annexin V-FITC/PI staining based flow cytometry (reference value: 0.89 %). It is filed as functional.
For data set [26], the system named is PC-3. As to the kind of experiment: Antitumor activity against human PC-3 cells xenografted in NOD-SCID mouse model assessed as tumor growth inhibition at 5 mg/kg, ip administered once every 3 days for 21 days relative to control. It is filed as functional. To be noted: PC-3, 504 h, time 21 day, read-out: TGI.
A short description of data set [27]: Toxicity in mouse assessed as increase in blood total bilirubin level at 5 mg/kg. The conditions noted are these: in vivo. The class given is organism-based.
The nature of data set [28]: Toxicity in mouse assessed as increase in blood BUN level at 5 mg/kg. To be noted: in vivo. The class given is organism-based.
Data set [29] in a line: Toxicity in mouse assessed as increase in blood GGT level at 5 mg/kg. The class given is organism-based. To be noted: in vivo.
A short description of data set [30]: Toxicity in mouse assessed as increase in blood glutamic pyruvic transaminase level at 5 mg/kg. It is filed as organism-based. The conditions noted are these: in vivo.
The nature of data set [31]: Toxicity in mouse assessed as increase in blood creatinine level at 5 mg/kg. It is filed as organism-based. The conditions noted are these: in vivo.
Data set [32] is described as follows: Toxicity in mouse assessed as decrease in total protein level at 5 mg/kg. It is filed as organism-based. To be noted: in vivo.
Data set [33] is described as follows: Toxicity in mouse assessed as decrease in platelet level at 5 mg/kg. The class given is organism-based. To be noted: in vivo.
Data set [34] deals with T1, S-phase kinase-associated protein 2/Cyclin-dependent kinases regulatory subunit 1/S-phase kinase-associated protein 1. As to the kind of experiment: Inhibition of GST-tagged Skp2/Skp1 (unknown origin)/His6-tagged Cks1 (unknown origin) interaction by AlphaScreen assay. The class given is protein assay.

≈ marks a conversion by molar mass, not a printed value. Calls of active or inactive are those of the source. The calls are words filed in the database; no cut-off is given here. Where only a bound is given, the exact number is not on record here.

T1 sequence (P61024 whole entry): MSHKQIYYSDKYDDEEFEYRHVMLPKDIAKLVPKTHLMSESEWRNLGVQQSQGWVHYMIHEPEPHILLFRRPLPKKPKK
T1 sequence (Q13309 whole entry): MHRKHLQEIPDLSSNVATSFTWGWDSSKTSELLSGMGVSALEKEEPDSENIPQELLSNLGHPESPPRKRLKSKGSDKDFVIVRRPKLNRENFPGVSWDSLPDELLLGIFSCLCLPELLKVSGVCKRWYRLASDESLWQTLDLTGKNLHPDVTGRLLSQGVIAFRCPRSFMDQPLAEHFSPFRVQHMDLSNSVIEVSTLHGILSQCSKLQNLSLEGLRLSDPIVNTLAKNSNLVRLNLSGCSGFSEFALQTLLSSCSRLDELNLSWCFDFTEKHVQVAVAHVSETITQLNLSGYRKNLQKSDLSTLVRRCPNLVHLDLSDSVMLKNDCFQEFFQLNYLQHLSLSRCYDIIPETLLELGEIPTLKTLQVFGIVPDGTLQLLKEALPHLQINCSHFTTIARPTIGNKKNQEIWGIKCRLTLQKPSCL
T1 sequence (P63208 whole entry, further chain): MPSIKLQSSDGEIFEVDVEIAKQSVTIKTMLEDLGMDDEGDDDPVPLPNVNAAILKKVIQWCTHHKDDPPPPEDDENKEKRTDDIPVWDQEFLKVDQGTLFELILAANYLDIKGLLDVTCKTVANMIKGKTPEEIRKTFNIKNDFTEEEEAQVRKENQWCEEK

For the compound `CCC(=O)NCC1CCN(c2cnc(-c3ccccc3)c(-c3ccccc3)n2)CC1`, the IC50 in [1] amounted to 2.8 µM; with MGC-803 [2], 43.9 µM; with NCI-H1299, 68.3 µM; with MCF7, 58.1 µM; in [3] it was 52.6 µM; in the data set with PC-3 [4], 22.1 µM. The compound also registered a solubility in data set [5] of 0.57 µg/mL (≈ 1.42 µM).
As to `CC(C)N(CCCCOCC(=O)NS(C)(=O)=O)c1cnc(-c2ccccc2)c(-c2ccccc2)n1` [SELEXIPAG], the outcome with PC-3 [6], with PC-3 [7], with PC-3 [8], in the data set on MGC-803 [9], with MGC-803 [10] and with MGC-803 [11] was Active. The compound also came in with an IC50 in data set [1] of 42.8 µM. The Activity was 44.88% in the data set on PC-3 [12]; 34.85% in the data set with PC-3 [13]; 18.81% with PC-3 [14]; 49.75% with MGC-803 [15]; 27.3% with MGC-803 [16]; 21.27% with MGC-803 [17]. Moreover, the Activity is reported as 0.57% with PC-3 [19]; 4.54% with PC-3 [20]; 2.22% in the data set on PC-3 [21]; 1.58% in the data set with MGC-803 [23]; 1.21% in the data set on MGC-803 [24]; 0.44% in the data set on MGC-803 [25]. For the same compound, the viability at 20 µM in the data set with PC-3 [18] is 92.7%; in the data set with MGC-803 [22], 96.8%.
Turning to `CC(C)(C)OC(=O)N1CCN(c2cnc(-c3ccccc3)c(-c3ccccc3)n2)CC1`, the IC50 in [1] was 1.7 µM; with MGC-803 [2] it was 46.9 µM; in the data set on NCI-H1299 it was above 100 µM; in the data set on MCF7, 42.1 µM; in data set [3], 52.3 µM; in the data set on PC-3 [4], 96.5 µM. The amount in solution in data set [5] (solubility) came to 0.13 µg/mL (≈ 0.312 µM).
Take `CC(=O)O[C@H]1C(=O)[C@@]2(C)[C@H]([C@H](OC(=O)c3ccccc3)[C@]3(O)C[C@H](OC(=O)[C@H](O)[C@@H](NC(=O)c4ccccc4)c4ccccc4)C(C)=C1C3(C)C)[C@]1(OC(C)=O)CO[C@@H]1C[C@@H]2O` [PACLITAXEL]: the inhibition in vivo at 5 mg/kg with PC-3 [26] is 75.8%. Further, the Activity result in [27], in data set [28], in data set [29], in [30], in [31] and in data set [32] was “Toxic” in each case. In addition, in [33], the Activity result is recorded as “Toxic”.
As to `O=C(NCC1CCN(c2cnc(-c3ccccc3)c(-c3ccccc3)n2)CC1)c1ccccc1`, the 50% inhibitory concentration (IC50) in data set [1] is 2.4 µM; with MGC-803 [2] it was above 100 µM; in the data set with NCI-H1299 it was above 100 µM; in the data set on MCF7 it was above 100 µM; in data set [3] it was 81.1 µM; with PC-3 [4], 70.9 µM. For the same compound, the concentration in solution in [5] (solubility) was 0.08 µg/mL (≈ 0.178 µM).
On to `CC(C)(C)OC(=O)NCC1CCN(c2cnc(-c3ccccc3)c(-c3ccccc3)n2)CC1`, for which the half-maximal inhibitory concentration (IC50) turned out to be 2.3 µM in [1]; 23.6 µM with MGC-803 [2]; 41.6 µM in the data set with NCI-H1299; 18 µM in the data set on MCF7; 45.6 µM in [3]; 11.7 µM in the data set with PC-3 [4]. This compound registered a solubility in data set [5] of 0.51 µg/mL (≈ 1.15 µM).
`O=C(NC1CCN(c2cnc(-c3ccccc3)c(-c3ccccc3)n2)CC1)c1ccccc1`: the half-maximal inhibitory concentration (IC50) was 41.3 µM in the data set with MGC-803 [2]; above 100 µM in the data set with NCI-H1299; 25.1 µM with MCF7; above 100 µM in data set [3]; above 100 µM in the data set on PC-3 [4]. This compound also displayed a solubility in data set [5] of 0.1 µg/mL (≈ 0.23 µM).
As to `CC(C)(C)C(=O)NCC1CCN(c2cnc(-c3ccc(S(C)(=O)=O)cc3)c(-c3ccccc3)n2)CC1`, the concentration for half-maximal inhibition (IC50) was 2.7 µM in [1]; 87.2 µM with MGC-803 [2]; 50.8 µM in the data set on NCI-H1299; 65.6 µM with MCF7; 88.2 µM in [3]; 63.7 µM in the data set on PC-3 [4]. Also, the solubility in [5] was determined as 0.19 µg/mL (≈ 0.375 µM).
`O=C(OC12CC3CC(CC(C3)C1)C2)c1ccc(NCc2cc(O)ccc2O)cc1`: the IC50 in data set [34] is 36.6 µM.

The values above are taken from ChEMBL document CHEMBL5338791, “Discovery of Novel 1,3-Diphenylpyrazine Derivatives as Potent S-Phase Kinase-Associated Protein 2 (Skp2) Inhibitors for the Treatment of Cancer” (J Med Chem, 2023).
